Results as given in patent US11590116B2 (THERAVANCE BIOPHARMA R&D IP, LLC, priority 2019, dated 2023).

Experiments:
[1] = biological target: T1, recombinant human ALK5 (TGF-βR1) protein (Homo sapiens, UniProt P36897); experiment: Biochemical ALK5 (TGF-βR1) assay to measure pKi (LANCE Ultra ULight kinase assay); conditions: apparent pKi from pIC50 by Cheng-Prusoff, read-out: ALK5 pKi (converted)
T1 construct: purchased Life Technologies PR9075A
T1 sequence (P36897 34-503): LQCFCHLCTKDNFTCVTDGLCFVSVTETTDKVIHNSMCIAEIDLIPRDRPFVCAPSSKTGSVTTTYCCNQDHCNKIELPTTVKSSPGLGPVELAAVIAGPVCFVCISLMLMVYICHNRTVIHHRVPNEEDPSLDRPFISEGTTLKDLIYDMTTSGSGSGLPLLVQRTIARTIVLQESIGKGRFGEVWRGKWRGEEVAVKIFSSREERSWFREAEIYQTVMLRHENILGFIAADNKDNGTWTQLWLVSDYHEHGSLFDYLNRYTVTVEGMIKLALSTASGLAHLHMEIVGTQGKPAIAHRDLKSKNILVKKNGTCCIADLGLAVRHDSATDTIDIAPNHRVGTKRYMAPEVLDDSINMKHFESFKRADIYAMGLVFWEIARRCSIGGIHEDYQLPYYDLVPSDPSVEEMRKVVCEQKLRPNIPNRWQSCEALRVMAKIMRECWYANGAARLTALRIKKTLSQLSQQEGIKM
Outline: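 Compounds (10 μM to 25 pM) preincubated 60 minutes at room temperature with enzyme, then reaction run 60 minutes at 37° C with ATP added as 125 μM (5× final). Stopped with EDTA plus Eu-anti-phospho-Topoisomerase 2-alpha (Thr1342) antibody, TR-FRET read at 665 nm; pIC50 converted to pKi via Cheng-Prusoff.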

[2] = test system: TGF-β-stimulated SMAD3 phosphorylation in BEAS-2B cells; experiment: Cellular ALK5 potency assay, inhibition of TGF-β stimulated pSMAD3 formation in BEAS-2B cells; assay type: cell-based; conditions: Homo sapiens; inhibition of TGF-β stimulated pSMAD3 formation, BEAS-2B cells; read-out: BEAS2B pIC50 (converted)
Outline: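 Cells seeded overnight; rinse with supplemented HBSS; compound 1 h at 37 °C; TGF-β 10 ng/mL final, 30 min; lyse; AlphaLISA acceptor and detector beads 2 h apart, read next day. Potency expressed as pIC50.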

Structure (SMILES): Cc1cccc(-c2nc3ccccn3c2-c2ccc3ncc(NCCN4CCN(C(C)C)CC4)cc3c2)n1 [Compound 293, N-(2-(4-isopropylpiperazin-1-yl)ethyl)-6-(2-(6-methylpyridin-2-yl)imidazo[1,2-a]pyridin-3-yl)quinolin-3-amine]
- Ki [1]: 0.0398 to 0.316 nM
- IC50 [2]: 25.1 to 158 nM

Structure (SMILES): Cc1cccc(-c2[nH]cnc2-c2ccc3ncc(C4=CCC5(CC4)CNC5)cc3c2)n1 [Compound 294, 3-(2-azaspiro[3.5]non-6-en-7-yl)-6-[5-(6-methyl-2-pyridyl)-1H-imidazol-4-yl]quinoline]
- Ki [1]: 0.0398 to 0.316 nM
- IC50 [2]: 25.1 to 158 nM

Structure (SMILES): Cc1cccc(-c2n[nH]cc2-c2ccc3ncc(-c4cnn(CC(=O)N5CCNCC5)c4)cc3n2)n1 [Compound 295, 2-[4-[6-[3-(6-methyl-2-pyridyl)-1H-pyrazol-4-yl]-1,5-naphthyridin-3-yl]pyrazol-1-yl]-1-piperazin-1-yl-ethanone]
- Ki [1]: 0.0398 to 0.316 nM
- IC50 [2]: 200 to 1260 nM

Structure (SMILES): Cc1cccc(-c2n[nH]cc2-c2ccc3ncc(N[C@@]45C[C@@H]6C[C@@H](C[C@@](N)(C6)C4)C5)cc3n2)n1 [Compound 297, rac-(5S,7R)-N1-[6-[3-(6-methyl-2-pyridyl)-1H-pyrazol-4-yl]-1,5-naphthyridin-3-yl]adamantane-1,3-diamine]
- Ki [1]: 3.98 to 31.6 nM
- IC50 [2]: 200 to 1260 nM

Structure (SMILES): Cc1cccc(-c2n[nH]cc2-c2ccc3ncc(N4CCN(CC#N)CC4)cc3n2)n1 [Compound 299, 2-[4-[6-[3-(6-methyl-2-pyridyl)-1H-pyrazol-4-yl]-1,5-naphthyridin-3-yl]piperazin-1-yl]acetonitrile]
- Ki [1]: < 0.0316 nM
- IC50 [2]: < 20 nM

Structure (SMILES): Cc1cccc(-c2n[nH]cc2-c2ccc3ncc(N)cc3n2)n1 [Compound 300, 6-[3-(6-methyl-2-pyridyl)-1H-pyrazol-4-yl]-1,5-naphthyridin-3-amine]
- Ki [1]: < 0.0316 nM
- IC50 [2]: < 20 nM

Structure (SMILES): Cc1cccc(-c2[nH]nnc2-c2ccc3ncc(-c4cn[nH]c4)cc3n2)n1 [Compound 301, 2-[5-(6-methyl-2-pyridyl)-1H-triazol-4-yl]-7-(1H-pyrazol-4-yl)-1,5-naphthyridine]
- Ki [1]: 0.0398 to 0.316 nM
- IC50 [2]: 25.1 to 158 nM

Structure (SMILES): COC(=O)N1CCc2nnc(-c3cnc4ccc(-c5c[nH]nc5-c5ccc(F)c(C)n5)nc4c3)cc2C1 [Compound 303, methyl 3-[6-[3-(5-fluoro-6-methyl-2-pyridyl)-1H-pyrazol-4-yl]-1,5-naphthyridin-3-yl]-7,8-dihydro-5H-pyrido[4,3-c]pyridazine-6-carboxylate]
- Ki [1]: 0.0398 to 0.316 nM
- IC50 [2]: 25.1 to 158 nM

Structure (SMILES): Cc1cccc(-c2n[nH]cc2-c2ccc3ncc(N4CC5CN(C)CC54)cc3n2)n1 (stereo not shown) [Compound 304, 7-(3-methyl-3,6-diazabicyclo[3.2.0]heptan-6-yl)-2-[3-(6-methyl-2-pyridyl)-1H-pyrazol-4-yl]-1,5-naphthyridine]
- Ki [1]: 0.0398 to 0.316 nM
- IC50 [2]: 25.1 to 158 nM

Structure (SMILES): Cc1cccc(-c2n[nH]cc2-c2ccc3ncc(-c4cnn(CCN)c4)cc3n2)n1 [Compound 305, 2-[4-[6-[3-(6-methyl-2-pyridyl)-1H-pyrazol-4-yl]-1,5-naphthyridin-3-yl]pyrazol-1-yl]ethanamine]
- Ki [1]: < 0.0316 nM
- IC50 [2]: 25.1 to 158 nM

Structure (SMILES): CNCCn1cc(-c2cnc3ccc(-c4c(-c5cccc(C)n5)[nH]c5ncccc45)cc3c2)cn1 [Compound 306, N-methyl-2-(4-(6-(2-(6-methylpyridin-2-yl)-1H-pyrrolo[2,3-b]pyridin-3-yl)quinolin-3-yl)-1H-pyrazol-1-yl)ethan-1-amine]
- Ki [1]: < 0.0316 nM
- IC50 [2]: 25.1 to 158 nM

Structure (SMILES): Cc1cccc(-c2[nH]cnc2-c2ccc3ncc(N4CCCNCC4)cc3n2)n1 [Compound 307, 7-(1,4-diazepan-1-yl)-2-(5-(6-methylpyridin-2-yl)-1H imidazol-4-yl)-1,5-naphthyridine]
- Ki [1]: 0.0398 to 0.316 nM
- IC50 [2]: 25.1 to 158 nM

Structure (SMILES): Cc1cccc(-c2n[nH]cc2-c2ccc3ncc(-c4cnn5c4CNCC5)cc3n2)n1 [Compound 308, 2-[3-(6-methyl-2-pyridyl)-1H-pyrazol-4-yl]-7-(4,5,6,7-tetrahydropyrazolo[1,5-a]pyrazin-3-yl)-1,5-naphthyridine]
- Ki [1]: 0.0398 to 0.316 nM
- IC50 [2]: < 20 nM

Structure (SMILES): Cc1cccc(-c2[nH]cnc2-c2ccc3ncc(C4=CCN(C)C4)cc3n2)n1 [Compound 309, 7-(1-methyl-2,5-dihydropyrrol-3-yl)-2-[5-(6-methyl-2-pyridyl)-1H-imidazol-4-yl]-1,5-naphthyridine]
- Ki [1]: < 0.0316 nM
- IC50 [2]: 25.1 to 158 nM

Structure (SMILES): Cc1cccc(-c2[nH]cnc2-c2ccc3ncc(-c4ccc(C(=O)OC5CCNCC5)cc4)cc3c2)n1 [Compound 310, 4-piperidyl 4-[6-[5-(6-methyl-2-pyridyl)-1H-imidazol-4-yl]-3-quinolyl]benzoate]
- Ki [1]: 0.0398 to 0.316 nM
- IC50 [2]: 25.1 to 158 nM

Structure (SMILES): CNCCN1CCCN(c2cnc3ccc(-c4c[nH]nc4-c4cccc(C)n4)nc3c2)CC1 [Compound 311, N-methyl-2-[4-[6-[3-(6-methyl-2-pyridyl)-1H-pyrazol-4-yl]-1,5-naphthyridin-3-yl]-1,4-diazepan-1-yl]ethanamine]
- Ki [1]: 0.0398 to 0.316 nM
- IC50 [2]: 200 to 1260 nM

Structure (SMILES): Cc1cccc(-c2[nH]cnc2-c2ccc3ncc(NCCN4C[C@@H](C)N[C@@H](C)C4)cc3c2)n1 [Compound 313, N-(2-((3R,5S)-3,5-dimethylpiperazin-1-yl)ethyl)-6-(5-(6-methylpyridin-2-yl)-1H-imidazol-4-yl)quinolin-3-amine]
- Ki [1]: 0.0398 to 0.316 nM
- IC50 [2]: 25.1 to 158 nM

Structure (SMILES): CNCCn1cc(-c2cnc3ccc(-c4nnn(Cc5ccccc5)c4-c4cccc(C)n4)cc3c2)cn1 [Compound 314, 2-[4-[6-[1-benzyl-5-(6-methyl-2-pyridyl)triazol-4-yl]-3-quinolyl]pyrazol-1-yl]-N-methyl-ethanamine]
- Ki [1]: 3.98 to 31.6 nM
- IC50 [2]: 1580 to 10000 nM

Structure (SMILES): Cc1cccc(-c2n[nH]cc2-c2ccc3ncc(-c4nc5n(n4)CCNC5)cc3c2)n1 [Compound 315, 6-[3-(6-methyl-2-pyridyl)-1H-pyrazol-4-yl]-3-(5,6,7,8-tetrahydro-[1,2,4]triazolo[1,5-a]pyrazin-2-yl)quinoline]
- Ki [1]: 0.0398 to 0.316 nM
- IC50 [2]: 25.1 to 158 nM

Structure (SMILES): Cc1cccc(-c2n[nH]cc2-c2ccc3ncc(N4CCC(N)CC4)cc3n2)n1 [Compound 316, 1-[6-[3-(6-methyl-2-pyridyl)-1H-pyrazol-4-yl]-1,5-naphthyridin-3-yl]piperidin-4-amine]
- Ki [1]: < 0.0316 nM
- IC50 [2]: 25.1 to 158 nM

Structure (SMILES): Cc1cccc(-c2n[nH]cc2-c2ccc3ncc(-c4cnco4)cc3n2)n1 [Compound 317, 5-[6-[3-(6-methyl-2-pyridyl)-1H-pyrazol-4-yl]-1,5-naphthyridin-3-yl]oxazole]
- Ki [1]: 0.0398 to 0.316 nM
- IC50 [2]: < 20 nM

Structure (SMILES): Cc1nc(-c2n[nH]cc2-c2ccc3ncc(N4CCCNCC4)cc3n2)ccc1F [Compound 318, 7-(1,4-diazepan-1-yl)-2-[3-(5-fluoro-6-methyl-2-pyridyl)-1H-pyrazol-4-yl]-1,5-naphthyridine]
- Ki [1]: 0.0398 to 0.316 nM
- IC50 [2]: 25.1 to 158 nM

Structure (SMILES): Cc1cccc(-c2[nH]cnc2-c2ccc3ncc(C4=CCN(C(C)C)C4)cc3c2)n1 [Compound 319, 3-(1-isopropyl-2,5-dihydropyrrol-3-yl)-6-[5-(6-methyl-2-pyridyl)-1H-imidazol-4-yl]quinoline]
- Ki [1]: < 0.0316 nM
- IC50 [2]: 25.1 to 158 nM

Structure (SMILES): Cc1cccc(-c2n[nH]cc2-c2ccc3ncc(N4CCCN(CC(C)C)CC4)cc3n2)n1 [Compound 320, 7-(4-isobutyl-1,4-diazepan-1-yl)-2-[3-(6-methyl-2-pyridyl)-1H-pyrazol-4-yl]-1,5-naphthyridine]
- Ki [1]: 0.0398 to 0.316 nM
- IC50 [2]: 200 to 1260 nM

Structure (SMILES): COc1cnc2ccc(-c3c[nH]nc3-c3cccc(C)n3)nc2c1 [Compound 321, 7-methoxy-2-[3-(6-methyl-2-pyridyl)-1H-pyrazol-4-yl]-1,5-naphthyridine]
- Ki [1]: < 0.0316 nM
- IC50 [2]: < 20 nM

Structure (SMILES): COC(=O)CC1CN(CCNc2cnc3ccc(-c4nc[nH]c4-c4cccc(C)n4)cc3c2)CCN1 (stereo not shown) [Compound 322, methyl 2-[4-[2-[[6-[5-(6-methyl-2-pyridyl)-1H-imidazol-4-yl]-3-quinolyl]amino]ethyl]piperazin-2-yl]acetate]
- Ki [1]: 0.0398 to 0.316 nM
- IC50 [2]: 200 to 1260 nM

Structure (SMILES): Cc1cccc(-c2n[nH]cc2-c2ccc3ncc(Br)cc3n2)n1 [Compound 323, 7-bromo-2-[3-(6-methyl-2-pyridyl)-1H-pyrazol-4-yl]-1,5-naphthyridine]
- Ki [1]: 0.0398 to 0.316 nM
- IC50 [2]: < 20 nM

Structure (SMILES): Cc1cccc(-c2n[nH]cc2-c2ccc3ncc(CNCCN4CCN(C(C)C)CC4)cc3n2)n1 [Compound 324, 2-(4-isopropylpiperazin-1-yl)-N-[[6-[3-(6-methyl-2-pyridyl)-1H-pyrazol-4-yl]-1,5-naphthyridin-3-yl]methyl]ethanamine]
- Ki [1]: 0.398 to 3.16 nM
- IC50 [2]: 25.1 to 158 nM

Structure (SMILES): Cc1cccc(-c2n[nH]cc2-c2ccc3ncc(-c4cn(Cc5cnc6c(c5)CNCC6)nn4)cc3n2)n1 [Compound 325, 2-[3-(6-methyl-2-pyridyl)-1H-pyrazol-4-yl]-7-[1-(5,6,7,8-tetrahydro-1,6-naphthyridin-3-ylmethyl)triazol-4-yl]-1,5-naphthyridine]
- Ki [1]: < 0.0316 nM
- IC50 [2]: 200 to 1260 nM
